Several values for one entry are separate records, joined by “and”; a condition that tells them apart may be missing. Equal entries are not always repeated. Entries after “also recorded” stand apart in the source; their conditions may differ.
Assays:
[1] = test system: bovine retinal pericytes; test: Apoptosis of bovine retinal pericytes cultured with AGE-methylglyoxal, annexin V / propidium iodine staining; format: cell-based
Method: The effects of AGE were tested on a uniform batch of cells (bovine retinal pericytes stemming from the same primary culture). When they were at confluence, the bovine retinal pericytes in primary culture were trypsinated. After having allowed them to become attached for 4 hours at 37° C., the medium and the cell debris that had not adhered to the matrix were eliminated and the culture medium (10% of FCS for bovine retinal pericytes) was added. An AGE solution (or its control) was added to the culture medium until reaching a concentration of […] to test the effects of AGE. The cultures were then continued for 1 or 2 passages with the agents, either for 7 or 15 days, respectively, for the bovine retinal pericytes.
Apoptosis was detected and quantified in pericytes cultured during two passages with 2 μM of AGE-methylglyoxal or its control using the technique based on detecting apoptotic cells with annexin V and detecting necrotic cells with propidium iodine.
The presence of phosphatidylserine (PS) on the external layer of the plasma membrane, which is characteristic of apoptotic cells, can be detected using annexin V labeled with fluorescein. This protein has a very strong affinity for PS. Staining is performed in the presence of an intercalating DNA dye, propidium iodine, similar to ethidium bromide to distinguish the apoptotic cells from possibly present necrotic cells which also fix annexin V. For this labeling the pericytes must be subconfluent (75% of confluence) and, thus, cultured for only about 12 days with AGE-methylglyoxal or BSA control.
The bovine retinal pericytes (dish 3.5 cm in diameter) were rinsed three times with PBS then incubated for 10 minutes in the dark with 500 μl of a HEPES buffer containing 10 μl of the fluorescein-labeled annexin V solution and 10 μl of the propidium iodine solution provided in the determination kit. The apoptotic cells as well as the necrotic cells fixed the annexin V and thus appeared green under the fluorescence microscope, but only the nuclei of the necrotic cells were dyed red by the propidium iodine. The percentages of necrotic cells and apoptotic cells were determined on 10 different fields, i.e., on a total of 300 to 800 cells.
Apoptosis was detected and quantified by labeling with annexin V and propidium iodine in bovine retinal pericytes during two passages with 2 μM of AGE-methylglyoxal or their control (see Material and Methods). […] Fluorescein-labeled annexin V stained green the plasma membranes of the apoptotic and necrotic cells, but only the necrotic cells whose cells had lost their integrity, were permeable to propidium iodide which stained their nuclei red. […] The cells were cultured during two passages (approximately 15 days) in the presence of 2 μM of AGE-methylglyoxal or control BSA. The results are expressed as % of apoptotic cells in the total cell population.

[2] = test system: bovine retinal pericytes; test: Determination of ceramides and diacylglycerols (DAG) in pericytes cultured with AGE-methylglyoxal (DAG-kinase, 32P-ATP); format: cell-based; settings: for % inhibition of the stimulated production of DAG induced by AGE-methylglyoxal / % inhibition of the stimulated production of ceramides induced by AGE-methylglyoxal: two passages
Method: The ceramides and diacylglycerols were measured in the pericytes cultured during two passages with […] of AGE-methylglyoxal or their control according to the method described by Preiss et al. (1986). This method is based on the phosphorylation of the ceramides and DAG by purified diacylglycerol kinase (DAG-kinase) from Escherichia coli in the presence of ATP labeled with ^32P on the γ phosphor in accordance with the diagram shown in FIG. 3.
The pericytes (2 or 3 dishes, 6 cm in diameter) were rinsed, recovered by scraping with a rubber policeman in 0.5 ml of water on ice and the dish rinsed by a supplementary 0.5 ml (volume of 1 ml of cell suspension) to which was added 10 μl of a solution of (9,10-^3H)-triacylglycerol at 0.5 μCi/ml.
The total lipids were then extracted by the method of Bligh and Dyer (1959). To this cell suspension (1 ml of PBS) was added 3.75 ml of a chloroform: methanol (2:1, v/v) mixture containing 80 μl of BHT (5 mM) in solution in ethanol. The solutions were then vortexed for 30 seconds and allowed to stand for a minimum of 30 minutes, then 1.25 ml of NaCl (0.9%) and 1.25 ml of chloroform were added to separate the phases. After centrifugation (700 g, 5 minutes), the bottom organic phase was collected and extraction of the aqueous phase was repeated twice with 1.5 ml of chloroform. The lipid extracts were then collected and the chloroform evaporated under a nitrogen stream. The aqueous phase enabled determination of the total proteins by staining with amide black and the organic phase was recovered in an Eppendorf tube then evaporated under nitrogen.
A standard range of ceramides (25 to 2500 ng) and DAG (25 to 25,000 ng) containing the same quantity of tritium-labeled triacylglycerol was prepared in parallel. The lipids were then solubilized in 20 μl of a solution of detergents (7.5% of n-octylglucopyranoside, […] and 1 mM of DETAPAC) by 1 minute of sonication followed by incubation for 15 minutes at ambient temperature. The reaction was started by addition of 50 μl of reaction buffer (imidazole 100 mM, NaCl 100 mM, MgCl2 25 mM, EGTA 2 mM, pH 6.6), 20 μl of a solution of DAG-kinase (4.86 mU) containing 10 mM of DTT and 10 μl of [γ-^32P] ATP at 5 mCi/ml diluted 10-fold in a solution containing 10 mM of unlabeled ATP, 100 mM of imidazole and 1 mM of DETAPAC (pH 6.6). The reaction was allowed to continue for 1 hour at ambient temperature and then stopped by 1 ml of the mixture chloroform:methanol: 1N hydrochloric acid (100:100:1, v/v/v), 170 μl of a buffer containing 10 mM of HEPES, 135 mM of NaCl, 1.5 mM of CaCl2, 0.5 mM of MgCl2 and 5.6 mM of glucose (pH 7.4) then 30 μl of EDTA 100 mM. The mixture was then vortexed, allowed to stand for 15 minutes at ambient temperature, then centrifuged (10,000 g, 5 minutes) at ambient temperature.
The organic phase (bottom) was collected and evaporated under nitrogen. The lipids were then taken up with 300 μl of the mixture ether:methanol (9:1, v/v) and deposited on a silica plate. The ceramides-1-phosphate were separated from the phosphatidic acid and triacylglycerols using the mixture chloroform:methanol: acetic acid (65:15:5, v/v/v) as migration solvent.
Exposure of the silica plate to an autoradiographic film (30 minutes, 80° C.) allowed visualization of the different ^32P-labeled lipids. The spots corresponding to the ceramides-1-phosphate and phosphatidic acid as well as the last 3 cm before the migration front (corresponding to the triacylglycerols) were delimited with a graphite crayon and scratched. The silica was recovered in counting pots, moistened with 200 μl of methanol, 200 μl of distilled water and 2 ml of scintillation liquid (Picofluor) for 2 hours before the addition of 8 ml of the scintillation liquid. The radioactivity emitted by the ^32P or the ^3H was then counted in each pot. The radioactivity emitted by the mother solution of (9,10-^3H)-triacylglycerol was also counted which allowed calculation of the reaction yield for each sample. […]

[3] = test system: retina of diabetic rats; settings: cited from earlier work; for loss / disappearance of pericytes in the retina of diabetic rats: literature
[4] = 10 μM, listed as Nα-acetyl-cysteine
[5] = 50 μM, listed as Nα-acetyl-cysteine

Molecule: CC(=O)N[C@@H](CS)C(=O)O [N-acetyl-L-cysteine, Nα-acetyl-L-cysteine]
- % inhibition of the apoptosis induced by AGE-methylglyoxal ([1]; 10 μM, two passages): protected the pericytes against the apoptosis; also recorded: complete inhibition
- % inhibition of the apoptosis induced by AGE-methylglyoxal ([1]; 10 μM, two passages, listed as Nα-acetyl-cysteine): normalized
- % inhibition of the apoptosis induced by AGE-methylglyoxal ([1]; 50 μM, two passages): protected the pericytes against the apoptosis
- % inhibition of the apoptosis induced by AGE-methylglyoxal ([1]; 50 μM, two passages, listed as Nα-acetyl-cysteine): normalized
- % inhibition of the stimulated production of DAG induced by AGE-methylglyoxal [2, 4]: normalized
- % inhibition of the stimulated production of ceramides induced by AGE-methylglyoxal [2, 4]: normalized
- % inhibition of the stimulated production of DAG induced by AGE-methylglyoxal [2, 5]: normalized
- % inhibition of the stimulated production of ceramides induced by AGE-methylglyoxal [2, 5]: normalized

Molecule: z-VAD-fmk
- % inhibition of the apoptosis induced by AGE-methylglyoxal ([1]; 50 μM, two passages): almost total inhibition
- % inhibition of the stimulated production of DAG induced by AGE-methylglyoxal ([2]; 50 μM): 100%
- % inhibition of the stimulated production of ceramides induced by AGE-methylglyoxal ([2]; 50 μM): 75%

Molecule: N=C(N)NN [aminoguanidine]
- loss / disappearance of pericytes in the retina of diabetic rats [3]: prevents
- reduction of the number of acellular capillaries in the retina ([3]; streptozotocin diabetic rat model (Hammes et al., 1991)): 80%

Molecule: z-VDVAD-fmk
- % inhibition of the apoptosis induced by AGE-methylglyoxal ([1]; 50 μM, two passages): partial inhibition
- % inhibition of the apoptosis induced by AGE-methylglyoxal ([1]; 50 μM, two passages, listed as z-VDVAD): partially inhibits

Molecule: CC1=C(/C=C/C(C)=C/C=C/C(C)=C/C=C/C=C(C)/C=C/C=C(C)/C=C/C2=C(C)C[C@@H](O)CC2(C)C)C(C)(C)C[C@H](O)C1 [zeaxanthin]
- % inhibition of the apoptosis induced by AGE-methylglyoxal ([1]; 2 μM, two passages): 50%

Molecule: Nc1ncc(-c2ccc(O)cc2)nc1Cc1ccccc1 [coelenteramine]
- % inhibition of the apoptosis induced by AGE-methylglyoxal ([1]; 2 μM, two passages): 60% and ~50%

Molecule: Cc1c(C)c2c(c(C)c1O)CCC(C)(C(=O)O)O2 (centres unmarked) [trilox]
- loss / disappearance of pericytes in the retina of diabetic rats [3]: prevent

Molecule: z-LEHD-fmk
- % inhibition of the apoptosis induced by AGE-methylglyoxal ([1]; 50 μM, two passages): almost total inhibition
- % inhibition of the stimulated production of DAG induced by AGE-methylglyoxal ([2]; 50 μM): not affected
- % inhibition of the stimulated production of ceramides induced by AGE-methylglyoxal ([2]; 50 μM): not affected

Molecule: CCCC[C@@H](C)[C@@H](OC(=O)C[C@@H](CC(=O)O)C(=O)O)[C@H](C[C@@H](C)C[C@H](O)CCCC[C@@H](O)C[C@H](O)[C@H](C)N)OC(=O)C[C@@H](CC(=O)O)C(=O)O [fumonisin B1]
- % inhibition of the apoptosis induced by AGE-methylglyoxal ([1]; 0.01 μM, two passages): 22%
- % inhibition of the apoptosis induced by AGE-methylglyoxal ([1]; 0.01 μM, two passages, listed as Fumonisin B1, 0.01 µM): 20%
- effect on the base apoptosis rate of cells cultured in BSA control ([1]; 0.1 μM (results not shown)): proapoptotic

Molecule: S=C(S)OC1CC2CC1C1CCCC21 (centres unmarked) [D609]
- % inhibition of the apoptosis induced by AGE-methylglyoxal ([1]; 9.4 μM, two passages): 40%
- % inhibition of the apoptosis induced by AGE-methylglyoxal ([1]; 30 μM, two passages): 47% and 50%
- % inhibition of the stimulated production of DAG induced by AGE-methylglyoxal ([2]; 9.4 μM): 80%
- % inhibition of the stimulated production of ceramides induced by AGE-methylglyoxal ([2]; 9.4 μM): 95%
- % inhibition of the stimulated production of DAG induced by AGE-methylglyoxal ([2]; 30 μM): 65%
- % inhibition of the stimulated production of ceramides induced by AGE-methylglyoxal ([2]; 30 μM): complete inhibition

Molecule: O=c1c2ccccc2[se]n1-c1ccccc1 [ebselen]
- inhibition at 5 µM ([1]; Bos taurus, 5 μM, two passages, read-out: % inhibition of the apoptosis induced by AGE-methylglyoxal): 94%
- inhibition at 10 µM ([1]; Bos taurus, 10 μM, two passages, read-out: % inhibition of the apoptosis induced by AGE-methylglyoxal): 88%

Molecule: CNCCCN1c2ccccc2CCc2ccccc21 [desipramine, 10,11-dihydro-5-(3-(methylamino)propyl)-5H-dibenz(b,f)azepine]
- % inhibition of the apoptosis induced by AGE-methylglyoxal ([1]; 0.3 μM (b168 prints 0.3 mM), two passages): 50%
- baseline apoptosis rate of the control cells ([1]; 1 μM (results not shown)): affected
- inhibition at 0.1 µM ([1]; Bos taurus, 0.1 μM, two passages, read-out: % inhibition of the apoptosis induced by AGE-methylglyoxal): 35%
- inhibition at 0.3 µM ([1]; Bos taurus, 0.3 μM (b168 prints 0.3 mM), two passages, read-out: % inhibition of the apoptosis induced by AGE-methylglyoxal): 35%
- % inhibition of the stimulated production of DAG induced by AGE-methylglyoxal ([2]; 0.1 μM): 17%
- % inhibition of the stimulated production of ceramides induced by AGE-methylglyoxal ([2]; 0.1 μM): 78%
- % inhibition of the stimulated production of DAG induced by AGE-methylglyoxal ([2]; 0.3 μM): 13%
- % inhibition of the stimulated production of ceramides induced by AGE-methylglyoxal ([2]; 0.3 μM): 95%
- baseline levels of the ceramides and DAG in the cells cultured with BSA control ([2]; 1 μM (results not shown)): affected

Molecule: z-DEVD-fmk
- % inhibition of the apoptosis induced by AGE-methylglyoxal ([1]; 50 μM, two passages): almost total inhibition
- % inhibition of the stimulated production of DAG induced by AGE-methylglyoxal ([2]; 50 μM): not affected
- % inhibition of the stimulated production of ceramides induced by AGE-methylglyoxal ([2]; 50 μM): not affected

Source: patent US8119609B2, “Methods of treating diabetic retinopathy with pericyte apoptosis inhibitors” (Merck Sante, priority 2000, dated 2012)
